Results from patent US6906170B1 (Yeda Research and Development Co. Ltd., priority 1998, dated 2005).
No end group written: not given here.

Tests used:
[1] = tested on: human T cells; assay: Induction of T cell adhesion to ECM, FN, LN and CO-IV; format: cell-based; settings: T cells activated only with PMA; not shown
[2] = tested on: HT-29 cells; assay: Spontaneous IL-8 secretion from intestinal epithelial cells (ELISA); format: cell-based, human; design: IL-8 secretion Average O.D.: scale not given here; settings: peptide 1 nM, 24 h at 37° C.; for IL-8 secretion Average O.D.: ELISA O.D. at 405 nm, medium alone 488 ± 8.5, background 71 ± 1.4; for IL-8 secretion % inhibition: spontaneous secretion
Procedure: Human colonic epithelial cell lines HT-29 (ATCC HTB38) and Caco-2 (ATCC […]) were obtained from the American Type Culture Collection (ATTC, Rockville, Md.). Cells were maintained in culture medium (DMEM supplemented with 10% cosmic calf serum (CSS), 2 mM glutamine, 100 U/ml penicillin, and 0.1 mg/ml streptomycin), at 37° C. and atmosphere of 5%, CO2. Cell viability was assessed using the standard MTT method.
Spontaneous or cytokine-induced secretion of IL-8 or IL-1β from intestinal epithelial cell. Test cells (HT-29 or Caco-2) were grown as confluent monolayers in 24-well tissue culture plates. […] When TNF-α was used, the peptides were added to the cells 1 hour prior to the addition of TNF-α. Following culture, the supernatants were harvested and analyzed for IL-8 or IL-1β secretion by ELISA using commercially available kits for IL-8 (Pharmingen) and IL-1β (Genzyme), according to the manufacturers' protocols.
The results in Table 1 show the O.D. readings of the ELISA assay (at 405 nm) as well as the percentage of inhibition of IL-8 secretion.

[3] = tested on: human T cells; assay: IL-2-induced T cell adhesion to LN, CO-IV and FN after peptide pre-treatment; format: cell-based; settings: pre-exposed to peptide 10 pg/ml, then IL-2 10 U/ml
Procedure: The T cells were then seeded onto microtiter wells that were pre-coated (1 μg/well) with the various ECM glycoproteins. T cell adhesion was measured 30 min later.
(§1) T cell adhesion assays. Human T cells were purified from the peripheral blood of healthy donors, and T cell adhesion to immobilized protein substrates was examined as follows: Human leukocytes were isolated on a Ficoll gradient, washed, and incubated (2 h, 37° C., 7.5% CO2, humidified atmosphere) on petri dishes. The non-adherent cells were then collected and incubated (1 h, 37° C., 7.5% CO2, humidified atmosphere) on nylon wool columns (Novamed Ltd., Jerusalem, Israel). Unbound cells were eluted from the columns by extensive washings. The resulting cell population was always >92% T cells. […] After 4-6 h at 37° C., the wells were washed and ^51[Cr]-labeled T cells were added to the wells, 10^5 cells/100 μl of adhesion medium (RPMI-1640 supplemented with 0.1% BSA, 1% sodium pyruvate, 1% HEPES buffer). The microtiter plates containing the cells were incubated (30 min, 37° C.) in a humidified, 7.5% CO2 atmosphere, and then washed. The adherent cells were lysed, and the resulting supernatants were removed and analyzed in a γ-counter. For each experimental group, the results were expressed as the mean percentage ±SD of bound T cells from quadruplicate wells.
Ile-Val-Leu, Arg-Met-Leu-Thr (SEQ ID NO:2) and […](SEQ ID NO:1) inhibit T cell adhesion to LN, CO-IV and FN. The next experiment was designed and performed to verify that the three IL-2-derived peptides indeed affect T cell interactions with ECM glycoproteins other than FN. […] The treated cells were then added to microtiter wells coated with CO-IV, LN, and FN.

[4] = tested on: human T cells; assay: PHA- or IL-2-mediated T cell proliferation; format: cell-based; settings: peptide 1 to 100 pg/ml
Procedure: The in vitro bioassays (a) to (e) are well-known in the art. Thus, for example, assays (a), (b) and (e) may be carried out as described in the section Materials and Methods hereinafter. […] The IL-2-derived peptides or their derivatives are added to the culture wells (different amounts, 10 microliters) for the entire period of the assay. [^3H]-Thymidine is added to the microtiter 96 U-form well plates 18 h before harvesting the cultures on day 3 onto glass fiber filters and counted by liquid scintillation counter. Mean CPM and SD from quadriplicate culture are then presented.

[5] = tested on: human T cells; assay: T cell chemotaxis through FN-coated polycarbonate membranes; format: cell-based; settings: peptide 1 pg/ml, FN-coated membrane
Procedure: T cell migration towards the chemotactic sources was assessed after 2 hr. One experiment representative of four.
Chemotaxis assays. T cell chemotaxis was performed and analyzed as previously described (Ben-Baruch et al., 1997). Briefly, the migration of human T cells (0.5×10^6 cells in adhesion medium/well) was examined in a 48-well chemotaxis micro-chamber (Neuro-Probe Inc., Cabin John, M D). The two compartments of the micro-chambers were separated by a FN-coated polycarbonate filter (5 μm pore size; Osmonics Protein Products, Livemore, Calif.). […] After incubation (120 min, 37° C., in a humidified, 7.5% CO2 atmosphere); the filters were removed, fixed, and stained with a Diff-Quik staining kit Dade, Düdingen, Switzerland). The number of migrating T cells in five high-power fields (under 500× magnification; WILD Microscope, Heerbrugg, Switzerland) was evaluated. For each group, the results are expressed as the mean number of cells in one high-power field.
Immune cell migration is the outcome of a subtle biological equilibrium existing between adhesion and detachment events. Lymphocyte adhesion to the subendothelial ECM and subsequent migration are two active processes that can overlap, but are not mutually dependent events. Adhesion and migration may depend on the ability of the T cells to continuously integrate different pro- and anti-adhesive signals via their versatile receptors for ECM, chemokines, cytokines, and possibly, also antigenic moieties.

[6] = tested on: human T cells; assay: IL-2-induced T cell adhesion to fibronectin (FN); format: cell-based; settings: for inhibition of adhesion of IL-2-activated T cells to FN: 30 min at 37° C., dose range
Procedure: as §1
The effect of synthetic peptides, with putative amino acid compositions corresponding to fractions 2 and 8, on IL-2-induced T cell adhesion to FN. […] These three peptides were synthesized, and their effects on IL-2-induced T cell adhesion to FN were studied. […] The inhibitory dose-response curves of Ile-Val-Leu and […](SEQ ID NO:1) are similar to those of the HPLC fractions 2 and 8, respectively, from which they were derived. […]

[7] = tested on: human T cells; assay: Secretion of TNF-α and IFN-γ from proliferating T cells; format: cell-based; settings: peptide 1 to 100 pg/ml; not shown

Compound	IL-8 secretion Average O.D. [2]	IL-8 secretion % inhibition [2] [%]	further results
CCCCCCCCCCCCCC(=O)O[C@@H]1[C@@H](C)[C@@]2(O)[C@@H](C=C(CO)C[C@]3(O)C(=O)C(C)=C[C@@H]23)[C@@H]2C(C)(C)[C@]12OC(C)=O [PMA]	–	–	T cells adhered to immobilized ECM and ECM glycoproteins [1]: 45±4.4%
AFLNRWIT [pep22]	158 ± 4.2	79	–
ATIVEFLNRWIT [pep17]	150 ± 6.4	81	–
Ala-Met-Leu-Thr (AMLT) [pep36]	201 ± 17.7	69	–
Ala-Val-Leu [pep7]	170 ± 8.5	76	–
Arg-Ala-Leu-Thr (RALT) [pep37]	222 ± 24.0	64	–
Arg-Met-Ala-Thr (RMAT) [pep38]	157 ± 1.4	79	–
Arg-Met-Leu-Ala (RMLA) [pep39]	160 ± 21.9	79	–
Arg-Met-Leu-Thr (RMLT; not fully specified (C-terminus); printed as Arg-Met-Leu-Thr) [pep3]	44 ± 0.7	107	inhibition of T cell adhesion to CO-IV, LN and FN [3]: inhibit T cell adhesion to the three major cell-adhesive glycoproteins of the ECM; interference with PHA- or IL-2-mediated proliferative responses [4]: none of them, at 1 to 100 pg/ml, interfered with either PHA- or IL-2-mediated proliferative responses; inhibition of T cell migration toward IL-2 ([5]; IL-2 10 U/ml in lower compartment, p<0.01): ~90%; inhibition of T cell chemotaxis toward MIP-1β ([5]; MIP-1β in lower compartment): 60%; concentration giving maximum inhibition of IL-2-induced T cell adhesion to FN ([6]; IL-2 10 U/ml): about 0.1 pg/ml; concentration giving maximum inhibition of IL-2-induced T cell adhesion to FN (molar) ([6]; IL-2 10 U/ml): ~0.2 pM; inhibition of adhesion of IL-2-activated T cells to FN ([6]; IL-2 10 U/ml): inhibited, in a dose-dependent manner; anti-adhesive effect after removal of peptide prior to IL-2 activation ([6]; T cells pre-treated 1 pg/ml, washed, then IL-2 and FN-coated wells): most of the anti-adhesive effects of the three peptides persevered; relative potency as inhibitor of IL-2-induced T cell adhesion to FN ([6]; among the three IL-2 peptides): most potent inhibitor; inhibition of secretion of TNF-α and IFN-γ from proliferating T cells [7]: nor did these peptides inhibit the secretion of TNF-α and IFN-γ
Arg-Met-Leu-Thr-NH2 (RMLT-NH2) [pep42]	226 ± 28.3	63	–
Arg-Trp-Ile-Thr [pep20]	191 ± 4.9	71	–
Arg-Val-Leu-Thr (RVLT) [pep41]	132 ± 17.0	85	–
Asn-Val-Ile-Val-Leu (NVIVL) [pep6]	100 ± 14.8	93	–
EALNRWIT [pep24]	187 ± 16.3	72	–
EFANRWIT [pep26]	156 ± 27.6	80	–
EFLARWIT [pep27]	309 ± 18.4	43	–
EFLNAWIT [pep28]	120 ± 8.5	88	–
EFLNEWIT [pep29]	139 ± 19.8	84	–
EFLNRAIT [pep30]	123 ± 9.2	88	–
EFLNRWAT [pep31]	112 ± 18.4	90	–

Compound	IL-8 secretion Average O.D. [2]	IL-8 secretion % inhibition [2] [%]	further results
EFLNRWIA [pep32]	80 ± 24.0	98	–
EFLNRWITFC [pep16]	126 ± 7.1	87	–
EFLNRWITFCQS [pep18]	162 ± 12.0	78	–
EVLNRWIT [pep25]	172 ± 2.8	76	–
Glu-Phe-Leu-Asn [pep21]	195 ± 14.1	70	–
Glu-Phe-Leu-Asn-Arg-Trp-Ile-Thr-NH2 (EFLNRWIT-NH2) [pep33]	73 ± 5.7	100	–
Glu-Val-Leu [pep10]	125 ± 19.1	87	–
IVEFLNRWIT [pep15]	33 ± 0.7	109	–
IVLELKG [pep5]	35 ± 0.7	109	–
Ile-Ala-Leu [pep8]	35 ± 4.9	109	–
Ile-Val-Ala [pep9]	100 ± 9.9	93	–
KFLNRWIT [pep23]	36 ± 14.1	108	–
LNRWIT [pep19]	152 ± 30.4	81	–
Leu-Val-Ile [reference compound]	–	–	inhibition of adhesion of IL-2-activated T cells to FN ([6]; IL-2 10 U/ml): none of these peptides, tested in a broad range of dosages, interfere with T cell adhesion
Lys-Met-Leu-Thr (KMLT) [pep40]	179 ± 17.7	74	–
NINVIVL [pep4]	34 ± 3.5	109	–
PKLTRMLT [pep43]	57 ± 12.7	103	–
RMLTFKFY [pep44]	307 ± 29.7	43	–
TIWRNLFE [reference compound]	–	–	inhibition of adhesion of IL-2-activated T cells to FN ([6]; IL-2 10 U/ml): none of these peptides, tested in a broad range of dosages, interfere with T cell adhesion
Thr-Leu-Met-Arg (TLMR) [reference compound]	–	–	inhibition of adhesion of IL-2-activated T cells to FN ([6]; IL-2 10 U/ml): none of these peptides, tested in a broad range of dosages, interfere with T cell adhesion
